{"source": "patent US20230147196A1", "about": "“MITOCHONDRIAL DYSFUNCTION IMPROVING AGENT” (priority 2020, published 2023)", "key": {"neural cells": {"system": "neural cells", "test": "Mitochondrial dysfunction caused by Complex I inhibitor rotenone in neural cells", "format": "cell-based", "details": "summary statement on the respiratory chain inhibitor tests in neural cells", "description": "Effects of an MKH derivative and a PKH derivative to mitochondrial dysfunctions caused by Complex I inhibitor rotenone ([…] Complex II inhibitor (3-nitro propionic acid (3-NP)), Complex III inhibitor (antimycin A), and a depolarizing agent (carbonylcyanide-m-chlorophenylhydrazone, CCCP) in neural cells were evaluated. The effects were evaluated with cell death (viability measurement with cell titer blue), inhibition of ATP production (ATP measurement with cell titer glo), and membrane potential reduction (JC-1 staining: depolarization (green), hyperpolarization (red))."}, "[1]": {"system": "hippocampus-derived neurons", "test": "Neuronopathy model: single neuron-astrocyte coculture treated with Aβ peptide (Aβ25-35), Sholl analysis of dendrites and axons", "format": "cell-based, ICR mouse", "details": "for neuropathy of nerve axons (branches and elongation, Tau antibody staining, Sholl analysis) / neuropathy of nerve dendrites (branches and elongation, MAP2 antibody staining, Sholl analysis): Aβ25-35 1 μM, test compound 0.3 μM, exposed for three days, FIGS. 2 and 3; for neurotoxicity caused by Aβ: primary neurons, low concentration of 0.3 μM, summary statement", "description": "In a neuronopathy model due to Aβ peptide of which a single neuron-astrocyte coculture sample is treated with Aβ peptide, an improvement effect in neurodegeneration of a MKH derivative was evaluated. Since mitochondrial affinity of the derivative and reconvertibility to MKH are expected affect the MKH delivery by an MKH derivative, a cationic derivative (MKH-DMG) presumed to have a high affinity, an anionic derivative (MKH-SUC) having a high intracellular reconversionability, and an oxidant of MKH (MK-4) used in clinical study were evaluated (Chem. 7).\nAfter culturing (2 weeks) astrocytes isolated from the cerebral cortex of 0- to 1-day-old ICR mouse, regions were divided in dots on a slide glass and cultured. After culturing for one more week, hippocampus-derived neurons of 0- to 1-day-old ICR mouse were seeded and cocultured. From day 1 of seeding neuron, Aβ25-35 (1 μM) and a test compound (0.3 μM) were exposed for three days, and morphological change of neurons was observed. Dendrites (MAP2 antibody) and axons (Tau antibody) of nerves were stained by immunostaining and analyzed. Dendrites and axons were evaluated for changes in branches and elongation of dendrites and axons by Sholl analysis method."}}, "data": [{"molecule": "CC(C)=CCC/C(C)=C/CC/C(C)=C/CC/C(C)=C/Cc1c(C)c(OC(=O)CN(C)C)c2ccccc2c1OC(=O)CN(C)C", "note": "[MKH-DMG]", "values": [{"measurement": "mitochondrial function (respiratory chain) damage / mitochondrial dysfunction (membrane potential reduced mitochondria)", "setting": "neural cells", "value": "can improve"}, {"measurement": "neuropathy of nerve axons (branches and elongation, Tau antibody staining, Sholl analysis)", "setting": "[1]", "value": "significantly improved"}, {"measurement": "neuropathy of nerve dendrites (branches and elongation, MAP2 antibody staining, Sholl analysis)", "setting": "[1]", "value": "significantly improved"}, {"measurement": "neurotoxicity caused by Aβ", "setting": "[1]", "value": "can improve"}]}, {"molecule": "CC(C)=CCC/C(C)=C/CC/C(C)=C/CC/C(C)=C/Cc1c(C)c(OC(=O)CCC(=O)O)c2ccccc2c1OC(=O)CCC(=O)O", "note": "[MKH-SUC]", "values": [{"measurement": "mitochondrial function (respiratory chain) damage / mitochondrial dysfunction (membrane potential reduced mitochondria)", "setting": "neural cells", "value": "can improve"}, {"measurement": "neuropathy of nerve axons (branches and elongation, Tau antibody staining, Sholl analysis)", "setting": "[1]", "value": "significantly improved"}, {"measurement": "neuropathy of nerve dendrites (branches and elongation, MAP2 antibody staining, Sholl analysis)", "setting": "[1]", "value": "significantly improved"}, {"measurement": "neurotoxicity caused by Aβ", "setting": "[1]", "value": "can improve"}]}, {"molecule": "Menaquinone-4 [MK-4, reference compound]", "values": [{"measurement": "neuropathy of nerve axons (branches and elongation, Tau antibody staining, Sholl analysis)", "setting": "[1]", "value": "No improvement effect"}, {"measurement": "neuropathy of nerve dendrites (branches and elongation, MAP2 antibody staining, Sholl analysis)", "setting": "[1]", "value": "No improvement effect"}]}]}
